ChEMBL document CHEMBL3045442, “Fungicidal activity of pipernonaline, a piperidine alkaloid derived from long pepper, Piper longum L., against phytopathogenic fungi” (2001)

Key:
Assay type in all cases: functional
Parameters in all cases: scale not given: the % may be the effect or the level left
[1] = system: Phytophthora infestans; experiment: Fungicidal activity against Phytophthora infestans infected tomato assessed as reduction in tomato late blight disease at 1000 mg/l applied for 1 day prior to infection relative to untreated control
[2] = system: Botrytis cinerea; experiment: Fungicidal activity against Botryotinia fuckeliana infected cucumber assessed as reduction in cucumber gray mold disease at 1000 mg/l applied for 1 day prior to infection relative to untreated control
[3] = system: Rhizoctonia solani; experiment: Fungicidal activity against Rhizoctonia solani infected rice assessed as reduction in rice sheath blight disease at 500 mg/l applied for 1 day prior to infection relative to untreated control
[4] = system: Rhizoctonia solani; experiment: Fungicidal activity against Rhizoctonia solani infected rice assessed as reduction in rice sheath blight disease at 1000 mg/l applied for 1 day prior to infection relative to untreated control
[5] = system: Blumeria graminis; experiment: Fungicidal activity against Blumeria graminis infected barley assessed as reduction in powdery mildew disease at 1000 mg/l applied for 1 day prior to infection relative to untreated control
[6] = system: Puccinia recondita; experiment: Fungicidal activity against Puccinia recondita infected wheat assessed as reduction in wheat leaf rust disease at 1000 mg/l applied for 1 day prior to infection relative to untreated control
[7] = system: Botrytis cinerea; experiment: Fungicidal activity against Botryotinia fuckeliana infected cucumber assessed as reduction in cucumber gray mold disease at 500 mg/l applied for 1 day prior to infection relative to untreated control
[8] = system: Pyricularia grisea; experiment: Fungicidal activity against Magnaporthe grisea infected rice assessed as reduction in rice blast disease at 1000 mg/l applied for 1 day prior to infection relative to untreated control
[9] = system: Phytophthora infestans; experiment: Fungicidal activity against Phytophthora infestans infected tomato assessed as reduction in tomato late blight disease at 500 mg/l applied for 1 day prior to infection relative to untreated control
[10] = system: Pyricularia grisea; experiment: Fungicidal activity against Magnaporthe grisea infected rice assessed as reduction in rice blast disease at 500 mg/l applied for 1 day prior to infection relative to untreated control
[11] = system: Puccinia recondita; experiment: Fungicidal activity against Puccinia recondita infected wheat assessed as reduction in wheat leaf rust disease at 500 mg/l applied for 1 day prior to infection relative to untreated control
[12] = system: Blumeria graminis; experiment: Fungicidal activity against Blumeria graminis infected barley assessed as reduction in powdery mildew disease at 500 mg/l applied for 1 day prior to infection relative to untreated control
[13] = system: Phytophthora infestans; experiment: Fungicidal activity against Phytophthora infestans infected tomato assessed as reduction in tomato late blight disease at 50 mg/l applied for 1 day prior to infection relative to untreated control
[14] = system: Botrytis cinerea; experiment: Fungicidal activity against Botryotinia fuckeliana infected cucumber assessed as reduction in cucumber gray mold disease at 250 mg/l applied for 1 day prior to infection relative to untreated control
[15] = system: Blumeria graminis; experiment: Fungicidal activity against Blumeria graminis infected barley assessed as reduction in powdery mildew disease at 250 mg/l applied for 1 day prior to infection relative to untreated control
[16] = system: Pyricularia grisea; experiment: Fungicidal activity against Magnaporthe grise infected rice assessed as reduction in rice blast disease at 250 mg/l applied for 1 day prior to infection relative to untreated control
[17] = system: Rhizoctonia solani; experiment: Fungicidal activity against Rhizoctonia solani infected rice assessed as reduction in rice sheath blight disease at 250 mg/l applied for 1 day prior to infection relative to untreated control
[18] = system: Phytophthora infestans; experiment: Fungicidal activity against Phytophthora infestans infected tomato assessed as reduction in tomato late blight disease at 250 mg/l applied for 1 day prior to infection relative to untreated control
[19] = system: Puccinia recondita; experiment: Fungicidal activity against Puccinia recondita infected wheat assessed as reduction in wheat leaf rust disease at 250 mg/l applied for 1 day prior to infection relative to untreated control
[20] = system: Botrytis cinerea; experiment: Fungicidal activity against Botryotinia fuckeliana infected cucumber assessed as reduction in cucumber gray mold disease at 50 mg/l applied for 1 day prior to infection relative to untreated control

Row | Compound | Activity [1] | Activity [2] | Activity [3] | Activity [4] | Activity [5] | Activity [6] | Activity [7] | Activity [8] | Activity [9] | Activity [10] | Activity [11] | Activity [12] | Activity [13] | Activity [14] | Activity [15] | Activity [16] | Activity [17] | Activity [18] | Activity [19] | Activity [20]
1 | O=C(CCCC/C=C/c1ccc2c(c1)OCO2)N1CCCCC1 [PIPERETTINE] | 0% | 0% | 0% | 0% | 60% | 0% | 0% | 0% | 0% | 0% | 0% | 40% | – | – | – | – | – | – | – | –
2 | N#Cc1c(Cl)c(Cl)c(Cl)c(C#N)c1Cl [CHLOROTHALONIL] | – | – | – | – | – | – | – | – | – | – | – | – | 95% | – | – | – | – | – | – | –
3 | O=C(/C=C/CCCC/C=C/c1ccc2c(c1)OCO2)N1CCCCC1 [PIPERNONALINE] | 91% | 0% | 0% | 35% | 0% | 100% | 0% | 71% | 80% | 51% | 91% | 0% | – | 0% | 0% | 26% | 0% | 55% | 80% | –
4 | O=C(/C=C/C=C/c1ccc2c(c1)OCO2)N1CCCCC1 [PIPERINE] | 0% | 0% | 0% | 0% | 0% | 0% | 0% | 0% | 0% | 0% | 0% | 0% | – | – | – | – | – | – | – | –
5 | COc1cc(/C=C/C(=O)N2CCC=CC2=O)cc(OC)c1OC [PIPLARTINE] | 0% | 0% | 0% | 0% | 0% | 0% | 0% | 10% | 0% | 0% | 0% | 0% | – | – | – | – | – | – | – | –
6 | C=CCc1ccc(O)c(OC)c1 [EUGENOL] | 0% | 0% | 0% | 0% | 5% | 0% | 0% | 0% | 0% | 0% | 0% | 0% | – | – | – | – | – | – | – | –
7 | CN(C)S(=O)(=O)N(SC(F)(Cl)Cl)c1ccccc1 [DICHLOFLUANID] | – | – | – | – | – | – | – | – | – | – | – | – | – | – | – | – | – | – | – | 92%
